Results as given in ChEMBL document CHEMBL4627384, “l-Thyroxin and the Nonclassical Thyroid Hormone TETRAC Are Potent Activators of PPARγ” (J Med Chem, 2020).
Activity calls are given as the source filed them. The rule behind the calls is not given here.

What was measured:
[1] = target: T1, Retinoic acid receptor RXR-gamma (Homo sapiens) (UniProt P48443); assay: Agonist activity at recombinant human pFA-CMV fused RXRgamma LBD expressed in HEK293T cells transfected with pFR-luciferase plasmid and pRL-SV40 plasmid at 10 uM incubated for 14 to 16 hrs by dual glo luciferase reporter gene assay; assay type: cell-based; settings: HEK-293T
T1 sequence (whole entry): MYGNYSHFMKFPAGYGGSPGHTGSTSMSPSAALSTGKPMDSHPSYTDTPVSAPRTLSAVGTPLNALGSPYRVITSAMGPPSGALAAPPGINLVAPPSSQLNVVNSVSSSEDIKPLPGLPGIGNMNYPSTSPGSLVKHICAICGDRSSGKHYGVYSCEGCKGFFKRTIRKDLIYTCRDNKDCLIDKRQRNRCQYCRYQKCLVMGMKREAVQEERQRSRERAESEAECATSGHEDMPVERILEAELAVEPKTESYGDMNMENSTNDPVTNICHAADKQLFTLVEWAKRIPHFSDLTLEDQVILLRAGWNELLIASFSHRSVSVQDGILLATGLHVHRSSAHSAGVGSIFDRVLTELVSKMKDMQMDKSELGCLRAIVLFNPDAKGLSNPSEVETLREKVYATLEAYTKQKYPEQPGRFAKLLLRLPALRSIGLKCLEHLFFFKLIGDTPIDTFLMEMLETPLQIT

[2] = target: T2, Retinoic acid receptor RXR-alpha (Homo sapiens) (UniProt P19793); assay: Agonist activity at recombinant human pFA-CMV fused RXRalpha LBD expressed in HEK293T cells transfected with pFR-luciferase plasmid and pRL-SV40 plasmid at 10 uM incubated for 14 to 16 hrs by dual glo luciferase reporter gene assay; assay type: cell-based; settings: HEK-293T
T2 sequence (whole entry): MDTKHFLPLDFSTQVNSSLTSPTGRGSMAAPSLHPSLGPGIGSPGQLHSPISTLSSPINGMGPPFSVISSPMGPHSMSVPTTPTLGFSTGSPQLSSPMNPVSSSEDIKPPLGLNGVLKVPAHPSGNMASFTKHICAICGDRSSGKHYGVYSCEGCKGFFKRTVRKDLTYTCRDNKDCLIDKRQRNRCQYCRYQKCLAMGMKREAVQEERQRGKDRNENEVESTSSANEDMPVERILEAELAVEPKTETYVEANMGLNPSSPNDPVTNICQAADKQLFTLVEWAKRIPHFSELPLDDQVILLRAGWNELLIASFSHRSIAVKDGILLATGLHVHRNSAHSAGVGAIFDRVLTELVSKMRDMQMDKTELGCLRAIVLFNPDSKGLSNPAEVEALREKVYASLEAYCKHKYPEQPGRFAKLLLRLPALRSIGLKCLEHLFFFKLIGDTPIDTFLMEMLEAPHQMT

[3] = target: T3, Peroxisome proliferator-activated receptor gamma (Homo sapiens) (UniProt P37231); assay: Agonist activity at recombinant human pFA-CMV fused PPARgamma LBD expressed in HEK293T cells transfected with pFR-luciferase plasmid and pRL-SV40 plasmid at 15 uM incubated for 14 to 16 hrs in presence of PPARgamma antagonist GW9662 by dual glo luciferase reporter gene assay; assay type: cell-based; settings: HEK-293T
T3 sequence (whole entry): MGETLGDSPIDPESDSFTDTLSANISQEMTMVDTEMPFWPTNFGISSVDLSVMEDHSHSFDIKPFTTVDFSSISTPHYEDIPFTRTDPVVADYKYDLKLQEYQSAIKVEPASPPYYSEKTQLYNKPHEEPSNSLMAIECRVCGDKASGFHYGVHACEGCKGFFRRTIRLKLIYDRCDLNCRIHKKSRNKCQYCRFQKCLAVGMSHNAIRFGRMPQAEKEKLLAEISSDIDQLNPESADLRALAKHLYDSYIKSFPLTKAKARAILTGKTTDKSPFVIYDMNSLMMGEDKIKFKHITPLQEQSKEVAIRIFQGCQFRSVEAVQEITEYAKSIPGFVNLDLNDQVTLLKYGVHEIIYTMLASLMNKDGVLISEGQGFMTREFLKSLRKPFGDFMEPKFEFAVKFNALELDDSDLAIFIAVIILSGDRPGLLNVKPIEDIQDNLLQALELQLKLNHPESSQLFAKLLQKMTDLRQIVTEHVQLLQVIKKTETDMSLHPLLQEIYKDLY

[4] = target: T4, Retinoic acid receptor RXR-beta (Homo sapiens) (UniProt P28702); assay: Agonist activity at recombinant human pFA-CMV fused RXRbeta LBD expressed in HEK293T cells transfected with pFR-luciferase plasmid and pRL-SV40 plasmid at 10 uM incubated for 14 to 16 hrs by dual glo luciferase reporter gene assay; assay type: cell-based; settings: HEK-293T
T4 sequence (whole entry): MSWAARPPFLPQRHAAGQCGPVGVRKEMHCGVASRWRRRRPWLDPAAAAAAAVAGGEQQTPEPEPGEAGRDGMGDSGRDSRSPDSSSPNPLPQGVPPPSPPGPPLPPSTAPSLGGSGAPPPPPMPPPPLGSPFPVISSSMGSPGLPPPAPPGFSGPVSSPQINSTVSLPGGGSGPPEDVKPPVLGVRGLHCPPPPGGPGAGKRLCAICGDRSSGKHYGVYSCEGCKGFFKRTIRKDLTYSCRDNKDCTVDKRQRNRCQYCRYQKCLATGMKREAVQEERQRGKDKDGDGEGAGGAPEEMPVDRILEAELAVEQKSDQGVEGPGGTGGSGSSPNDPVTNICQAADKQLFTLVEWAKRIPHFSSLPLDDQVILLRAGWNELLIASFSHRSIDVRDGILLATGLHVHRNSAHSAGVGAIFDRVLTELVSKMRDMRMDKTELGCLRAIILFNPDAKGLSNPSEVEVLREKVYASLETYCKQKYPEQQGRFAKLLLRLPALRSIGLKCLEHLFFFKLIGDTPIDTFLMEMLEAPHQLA

[5] = target: T5, Retinoic acid receptor RXR-alpha (Homo sapiens, UniProt P19793); assay: Binding affinity to RXRalpha LBD (unknown origin) by isothermal titration calorimetry
T5 sequence (P19793 whole entry): T2 sequence (whole entry)

[6] = target: T3, Peroxisome proliferator-activated receptor gamma (Homo sapiens); assay: Agonist activity at PPARgamma in human HepG2 cells with THRB knockdown assessed as induction of CD36 mRNA expression incubated for 8 hrs by qPCR analysis; assay type: cell-based
[7] = target: T6, Peroxisome proliferator-activated receptor gamma (Homo sapiens, UniProt P37231); assay: Agonist activity at recombinant human pFA-CMV fused PPARgamma expressed in HEK293T cells transfected with pFR-luciferase plasmid and pRL-SV40 plasmid incubated for 14 to 16 hrs by dual glo luciferase reporter gene assay; assay type: cell-based, HEK-293T
T6 sequence (P37231 whole entry): T3 sequence (whole entry)

[8] = target: T6, Peroxisome proliferator-activated receptor gamma; assay: Binding affinity to recombinant PPARgamma LBD (unknown origin) by isothermal titration calorimetry
[9] = target: T3, Peroxisome proliferator-activated receptor gamma (Homo sapiens); assay: Agonist activity at PPARgamma in human HepG2 cells with THRA knockdown assessed as induction of CD36 mRNA expression incubated for 8 hrs by qPCR analysis; assay type: cell-based
[10] = target: T2, Retinoic acid receptor RXR-alpha (Homo sapiens); assay: Agonist activity at recombinant human pFA-CMV fused RXRalpha LBD expressed in HEK293T cells transfected with pFR-luciferase plasmid and pRL-SV40 plasmid incubated for 14 to 16 hrs by dual glo luciferase reporter gene assay relative to control; assay type: cell-based; settings: HEK-293T
[11] = target: T5, Retinoic acid receptor RXR-alpha; assay: Agonist activity at recombinant human pFA-CMV fused RXRalpha LBD expressed in HEK293T cells transfected with pFR-luciferase plasmid and pRL-SV40 plasmid incubated for 14 to 16 hrs by dual glo luciferase reporter gene assay; assay type: cell-based, HEK-293T; settings: read-out: EC50

Activity [1]	Activity [2]	Activity [3]	Activity [4]	Kd [5] [nM]	Activity [6]	EC50 [7] [nM]	Kd [8] [nM]	Activity [9]	fold change (FC) [10]	EC50 [11] [nM]	Structure (SMILES)
Active	Active	inactive	Active	930	Dose-dependent effect	12000	400	Dose-dependent effect	7.4	15400	N[C@@H](Cc1cc(I)c(Oc2cc(I)c(O)c(I)c2)c(I)c1)C(=O)O [LEVOTHYROXINE]
Active	Active		Active	1500	Dose-dependent effect	100	110	Dose-dependent effect	9.1	1320	O=C(O)Cc1cc(I)c(Oc2cc(I)c(O)c(I)c2)c(I)c1 [TETRAC]
